Bounds are passed on as bounds.

The test system of one experiment is Lox-IMVI melanoma cell line. In words: Lox-IMVI anti-proliferative assay (growth inhibition, Cell Titer-Glo). In kind it is cell-based, human. The conditions noted are these: Homo sapiens; IC50 activity level in the cell-based Lox-IMVI anti-proliferative assay; read-out: Activity. The method in brief:
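Lox-IMVI cells in RPMI+10% FBS exposed 72 h at 37 °C to 10-point, 3-fold dilutions (0.5 nM–10 μM; 0.2% DMSO final), in duplicate. Viability by Cell Titer-Glo luminescence, with a t0 cell-number reading; data as % of DMSO control; IC50 from a four-parameter logistic fit.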
In general terms: Cellular ATP, detected with luciferase, serves as a proxy for viable cell number.
Turning to `NC(=O)[C@H]1CC[C@@H](n2c(Nc3cc(F)c(F)cc3F)nc3cnc(NC4CCOCC4)nc32)CC1` [Example 58, (1s,4s)-4-(2-(tetrahydro-2H-pyran-4-ylamino)-8-(2,4,5-trifluorophenylamino)-9H-purin-9-yl)cyclohexanecarboxamide], the IC50 was in the range of 500 to 1000 nM.

Regarding `NC(=O)[C@H]1CC[C@@H](n2c(Nc3cc(Cl)c(F)cc3F)nc3cnc(NC4CCOCC4)nc32)CC1` [Example 64, (1s,4s)-4-(8-(5-chloro-2,4-difluorophenylamino)-2-(tetrahydro-2H-pyran-4-ylamino)-9H-purin-9-yl)cyclohexanecarboxamide], the IC50 was more than 1000 nM.

`NC(=O)[C@H]1CC[C@@H](n2c(Nc3ccc(Cl)c(F)c3F)nc3cnc(NC4CCC(F)(F)CC4)nc32)CC1` [Example 290, (1s,4s)-4-(8-(4-chloro-2,3-difluorophenylamino)-2-(4,4-difluorocyclohexylamino)-9H-purin-9-yl)cyclohexanecarboxamide]: the IC50 fell in the range of 500 to 1000 nM.

As to `NC(=O)[C@H]1CC[C@@H](n2c(Nc3c(Cl)cc(F)cc3Cl)nc3cnc(N[C@H]4CCCOC4)nc32)CC1` [Example 202, (1R,4s)-4-(8-(2,6-dichloro-4-fluorophenylamino)-2-((S)-tetrahydro-2H-pyran-3-ylamino)-9H-purin-9-yl)cyclohexanecarboxamide], the IC50 was more than 1000 nM.

On to `C[C@H](CO)Nc1ncc2nc(Nc3c(F)cc(Cl)cc3Cl)n([C@H]3CC[C@@H](C(N)=O)CC3)c2n1` [Example 133, (1S,4s)-4-(8-(2,4-dichloro-6-nuorophenylamino)-2-((R)-1-hydroxypropan-2-ylamino)-9H-purin-9-yl)cyclohexanecarboxamide], for which the IC50 was 500 to 1000 nM.

Take `NC(=O)[C@H]1CC[C@@H](n2c(Nc3c(Cl)cc(Cl)cc3Cl)nc3cnc(NCC4CCC4)nc32)CC1` [Example 110, (1s,4s)-4-(2-(cyclobutylmethylamino)-8-(2,4,6-trichlorophenylamino)-9H-purin-9-yl)cyclohexanecarboxamide]: the IC50 fell in the range of 500 to 1000 nM.

As for `N#Cc1cc(F)c(Nc2nc3cnc(NC4CCC(F)(F)CC4)nc3n2[C@H]2CC[C@@H](C(N)=O)CC2)c(F)c1` [Example 396, (1s,4s)-4-(8-(4-cyano-2,6-difluorophenylamino)-2-(4,4-difluorocyclohexylamino)-9H-purin-9-yl)cyclohexanecarboxamide], the IC50 is 500 to 1000 nM.

For the molecule `NC(=O)[C@H]1CC[C@@H](n2c(Nc3c(Cl)cc(F)cc3Cl)nc3cnc(N[C@H]4CCC[C@@H]4O)nc32)CC1` [Example 272, (1R,4s)-4-(8-(2,6-dichloro-4-fluorophenylamino)-2-((1S,2S)-2-hydroxycyclopentylamino)-9H-purin-9-yl)cyclohexanecarboxamide], the IC50 is more than 1000 nM.

In the case of `CC(C)Nc1ncc2nc(Nc3c(Cl)cc(F)cc3Cl)n([C@H]3CC[C@@H](C(N)=O)CC3)c2n1` [Example 123, (1s,4s)-4-(8-(2,6-dichloro-4-fluorophenylamino)-2-(isopropylamino)-9H-purin-9-yl)cyclohexanecarboxamide], the IC50 was 500 to 1000 nM.

Regarding `NC(=O)[C@H]1CC[C@@H](n2c(Nc3c(F)cc(Cl)cc3Cl)nc3cnc(N[C@H]4C[C@@H](O)C4)nc32)CC1` [Example 324, (1s,4s)-4-(8-(2,4-dichloro-6-fluorophenylamino)-2-((1s,3s)-3-hydroxycyclobutylamino)-9H-purin-9-yl)cyclohexanecarboxamide], the IC50 is more than 1000 nM.

For the molecule `NC(=O)[C@H]1CC[C@@H](n2c(Nc3c(F)cccc3F)nc3cnc(NC4CCC4)nc32)CC1` [Example 42], the IC50 was more than 1000 nM.

Turning to `CC[C@H](C)Nc1ncc2nc(Nc3c(F)cc(F)cc3F)n([C@H]3CC[C@@H](C(N)=O)CC3)c2n1` [Example 334, (1R,4s)-4-(2-(sec-butylamino)-8-(2,4,6-trifluorophenylamino)-9H-purin-9-yl)cyclohexanecarboxamide], the IC50 fell in the range of 500 to 1000 nM.

For the molecule `NC(=O)[C@H]1CC[C@@H](n2c(Nc3c(F)cc(Cl)cc3F)nc3cnc(N[C@@H]4CCOC4)nc32)CC1` [Example 221, (1S,4s)-4-(8-(4-chloro-2,6-difluorophenylamino)-2-((R)-tetrahydrofuran-3-ylamino)-9H-purin-9-yl)cyclohexanecarboxamide], the IC50 is 500 to 1000 nM.

Consider `NC(=O)[C@H]1CC[C@@H](n2c(Nc3c(Cl)cc(Cl)cc3Cl)nc3cnc(N[C@H]4CC[C@H](O)C4)nc32)CC1` [Example 330, (1R,4s)-4-(2-((1S,3S)-3-hydroxycyclopentylamino)-8-(2,4,6-trichlorophenylamino)-9H-purin-9-yl)cyclohexanecarboxamide], for which the IC50 was in the range of 500 to 1000 nM.

Consider `NC(=O)[C@H]1CC[C@@H](n2c(Nc3cc(F)c(Cl)cc3Cl)nc3cnc(NC4CCOCC4)nc32)CC1` [Example 105, (1s,4s)-4-(8-(2,4-dichloro-5-fluorophenylamino)-2-(tetrahydro-2H-pyran-4-ylamino)-9H-purin-9-yl)cyclohexanecarboxamide], for which the IC50 is more than 1000 nM.

The same experiment, now with this note: Homo sapiens; Lox-IMVI anti-proliferative assay, IC50 activity level; read-out: Activity.
Turning to `C[C@]1(O)CCC[C@@H](Nc2ncc3nc(Nc4c(Cl)cc(F)cc4Cl)n([C@H]4CC[C@@H](C(N)=O)CC4)c3n2)C1` [Example 428, (1S,4s)-4-(8-(2,6-dichloro-4-fluorophenylamino)-2-((1R,3S)-3-hydroxy-3-methylcyclohexylamino)-9H-purin-9-yl)cyclohexanecarboxamide], the IC50 was more than 1000 nM.

`C[C@]1(C(N)=O)CC[C@@H](n2c(Nc3c(F)cc(Cl)cc3F)nc3cnc(NC4CC(F)(F)C4)nc32)CC1` [Example 581, (1s,4s)-4-(8-(4-chloro-2,6-difluorophenylamino)-2-(3,3-difluorocyclobutylamino)-9H-purin-9-yl)-1-methylcyclohexanecarboxamide]: the IC50 was less than 250 nM.

Take `N#Cc1ccc(F)c(Nc2nc3cnc(NC4CCOCC4)nc3n2[C@H]2CC[C@@H](C(N)=O)CC2)c1F` [Example 447, (1s,4s)-4-(8-(3-cyano-2,6-difluorophenylamino)-2-(tetrahydro-2H-pyran-4-ylamino)-9H-purin-9-yl)cyclohexanecarboxamide]: the IC50 was more than 1000 nM.

Turning to `CC(C)(CO)CNc1ncc2nc(Nc3c(Cl)cc(C#N)cc3Cl)n([C@H]3CC[C@@H](C(N)=O)CC3)c2n1` [Example 482, (1s,4s)-4-(8-(2,6-dichloro-4-cyanophenylamino)-2-(3-hydroxy-2,2-dimethylpropylamino)-9H-purin-9-yl)cyclohexanecarboxamide], the IC50 was more than 1000 nM.

As for `NC(=O)[C@H]1CC[C@@H](n2c(Nc3c(Cl)cccc3Cl)nc3cnc(N[C@@H]4CCCC[C@H](O)C4)nc32)CC1` [Example 435, (1S,4s)-4-(8-(2,6-dichlorophenylamino)-2-((1R,3S)-3-hydroxycycloheptylamino)-9H-purin-9-yl)cyclohexanecarboxamide], the IC50 was more than 1000 nM.

For `C[C@@H](CO)Nc1ncc2nc(Nc3c(Cl)cc(C#N)cc3Cl)n([C@H]3CC[C@@](C)(C(N)=O)CC3)c2n1` [Example 553, (1R,4s)-4-(8-(2,6-dichloro-4-cyanophenylamino)-2-((S)-1-hydroxypropan-2-ylamino)-9H-purin-9-yl)-1-methylcyclohexanecarboxamide], the IC50 was less than 250 nM.

Still in this experiment, the particulars now being: Homo sapiens; Lox-IMVI melanoma cell line, anti-proliferative assay; read-out: Activity (IC50 activity level).
For the molecule `CC(=O)N1CCC[C@@H](Nc2ncc3nc(Nc4c(Cl)cc(C#N)cc4Cl)n([C@H]4CC[C@@H](C(N)=O)CC4)c3n2)C1` [Example 712, (1S,4s)-4-(2-((R)-1-acetylpiperidin-3-ylamino)-8-(2,6-dichloro-4-cyanophenylamino)-9H-purin-9-yl)cyclohexanecarboxamide], the IC50 was more than 1000 nM.

In the case of `CC(=O)N1CCC[C@@H](Nc2ncc3nc(Nc4c(Cl)cc(Cl)cc4Cl)n([C@H]4CC[C@@H](C(N)=O)CC4)c3n2)C1` [Example 710, (1S,4s)-4-(2-((R)-1-acetylpiperidin-3-ylamino)-8-(2,4,6-trichlorophenylamino)-9H-purin-9-yl)cyclohexanecarboxamide], the IC50 was more than 1000 nM.

As for `NC(=O)[C@H]1CC[C@@H](n2c(Nc3c(F)cc(F)cc3F)nc3cnc(N[C@@H]4CCCN(Cc5ccccc5)C4)nc32)CC1` [Example 756, (1S,4s)-4-(2-((R)-1-benzylpiperidin-3-ylamino)-8-(2,4,6-trifluorophenylamino)-9H-purin-9-yl)cyclohexanecarboxamide], the IC50 is more than 1000 nM.

Turning to `C[C@]1(C(N)=O)CC[C@@H](n2c(Nc3c(Cl)cc(F)cc3Cl)nc3cnc(N[C@@H]4CC[C@@H](O)C4)nc32)CC1` [Example 638, (1S,4s)-4-(8-(2,6-dichloro-4-fluorophenylamino)-2-((1R,3R)-3-hydroxycyclopentylamino)-9H-purin-9-yl)-1-methylcyclohexanecarboxamide], the IC50 is less than 250 nM.

In the case of `NC(=O)[C@H]1CC[C@@H](n2c(Nc3c(F)cc(Cl)cc3Cl)nc3cnc(N[C@@H]4CCOC[C@H]4F)nc32)CC1` [Example 728, (1S,4s)-4-(8-(2,4-dichloro-6-fluorophenylamino)-2-((3S,4R)-3-fluorotetrahydro-2H-pyran-4-ylamino)-9H-purin-9-yl)cyclohexanecarboxamide], the IC50 was less than 250 nM.

As for `Cc1ccc(S(=O)(=O)N2CCC[C@@H](Nc3ncc4nc(Nc5c(F)cc(F)cc5Cl)n([C@H]5CC[C@@H](C(N)=O)CC5)c4n3)C2)cc1` [Example 787, (1S,4s)-4-(8-(2-chloro-4,6-difluorophenylamino)-2-((R)-1-tosylpiperidin-3-ylamino)-9H-purin-9-yl)cyclohexanecarboxamide], the IC50 was more than 1000 nM.

As for `CC(=O)N1CCC[C@@H](Nc2ncc3nc(Nc4c(F)cc(Cl)cc4Cl)n([C@H]4CC[C@@H](C(N)=O)CC4)c3n2)C1` [Example 711, (1S,4s)-4-(2-((R)-1-acetylpiperidin-3-ylamino)-8-(2,4-dichloro-6-fluorophenylamino)-9H-purin-9-yl)cyclohexanecarboxamide], the IC50 was more than 1000 nM.

Values taken from patent US11590139B2, “Substituted aminopurine compounds, compositions thereof, and methods of treatment therewith” (Signal Pharmaceuticals, LLC, priority 2014, dated 2023).
